Row | melting point [°C] | Structure (SMILES)
1 | 150 to 152 | CC1(C)OC(=O)C(Oc2ccc(Br)cc2)=C1c1ccc(S(C)(=O)=O)cc1
2 | 83.1 to 86.3 | CCc1nc(C)cn1CO
3 | 181 to 185 | CC(C)(C(=O)O)n1nc2ccc(NCCCN3CCC(OC(c4ccccc4)c4ccccc4)CC3)nn2c1=O
4 | 110 to 112 | O=C1c2ccccc2COc2cc(Br)ccc21
5 | 162 to 164 | CN1C(=O)c2ccccc2OC1(C)COc1ccc(N)cc1 (stereo unspecified)
6 | 95 to 98 | Cn1nc(-c2cc(C=O)c(Cl)cc2F)c(Cl)c1OC(F)F
7 | 263 to 266 | O=C(NN1CCN(C(=O)Nc2ccccc2)CC1)c1ccc(F)cc1
8 | 106 to 107 | CCCc1c(OCCCOc2cccc3c2CCCC3)ccc2c1OC(CCC(=O)OC)(CCC(=O)N1CCCC1)CC2=O (stereo unspecified)
9 | 238 to 239 | Nc1nnc(-c2ccc3ncn(-c4ccc(OC(F)(F)F)c(Cl)c4)c3c2)o1
10 | 169 to 170 | CCCCc1cc2ccccc2c(Oc2ccc(/C=C/C(=O)O)cc2)c1-c1ccc(F)cc1
11 | 94 | CCCCCCCCCCCC(=O)N(CCO)CCNCCO
12 | 140 to 141 | COc1ccc(-c2cc(F)c(F)cc2-c2ccc(S(C)(=O)=O)cc2)cc1OC
13 | 89 to 90 | Nc1ccc2ncnc(Nc3ccc(Oc4ccccc4)cc3)c2c1
14 | 219 to 220 | O=[N+]([O-])c1ccc2nc(-c3ccccc3)oc2n1
15 | 250 to 260 | CS(=O)(=O)c1ccc(-c2cnn(-c3ccc(Cl)cc3F)c(=O)c2-c2ccc(F)cc2)cc1
16 | 91.5 to 92.5 | COc1ccnc(CSCCN=C(NC#N)SC)c1
17 | 147 to 150 | O=C(O)C1CCCc2c(-c3ccc(Cl)cc3)noc2CC1 (stereo unspecified)
18 | 90 to 92 | CC(C)c1c(CO)c(-c2ccc(F)cc2)c2ccccn12
19 | 157 to 158 | Nc1cc(C(c2cc(F)ccc2F)S(=O)(=O)c2ccc(Cl)nc2)c(Cl)cn1 (stereo unspecified)
20 | 65 | O=[N+]([O-])c1ccc(F)c(-c2ccsc2)c1
21 | 118 to 121 | CNc1nc2ccc(Cc3ccccn3)cc2s1
22 | 105 to 110 | CCCC(=O)n1ccc(-c2ccc(C(=O)N3Cc4cccn4Cc4ccccc43)cc2)n1
23 | 265 to 267 | COc1cc2ncc(C#N)c(Nc3ccc(Cl)c(C(F)(F)F)c3)c2cc1OC

Row | melting point [°C] | Structure (SMILES)
24 | 91 to 92 | CC(C)Cc1nn(C)c(=O)c2c(SCCCO)n(Cc3ccccc3)cc12
25 | 195 to 197 | COc1cc(Nc2c(C#N)cnc3cc4ccccc4cc23)c(C)cc1Cl
26 | 99 to 100 | CCOc1ccc(S(=O)(=O)Cl)cc1C(=O)OC
27 | 199 to 200 | COc1cccc(NC(=O)N2CCc3cc(S(=O)(=O)N4CCN(c5cccc(Cl)c5)CC4)ccc32)c1
28 | 153 to 155 | O=C(Nc1ccc(-n2nc(C(F)(F)F)cc2C(F)(F)F)cn1)c1ccccc1F
29 | 185 | N#CCc1nn2c(C(F)(F)F)cc(-c3ccc(F)c(Cl)c3)nc2c1C#N
30 | 195 to 197 | COc1cc([N+](=O)[O-])c2nc(N)ccc2c1
31 | 110 | Cc1ccnc(N2CCN(CCc3c(C)n4c5c(cc(O)cc35)CCC4)CC2)c1
32 | 52 to 54 | CCCCCCCCC1(CCCCCCCC)c2cc(Br)ccc2-c2ccc(Br)cc21
33 | 127 to 129 | O=CN(O)C(CCCO)CS(=O)(=O)c1ccccc1Oc1ccc(Cl)cc1 (stereo unspecified)
34 | 132 to 134 | CC(C)(C)c1ccc(C(=O)CCCN2CCC(C3(O)c4ccccc4CCc4ccccc43)CC2)cc1
35 | 170 to 171 | COC(=O)c1cc(-c2ccccc2)c(=O)n2c1-c1sc(Br)cc1CC2
36 | 245 to 247 | CN1CCC(c2c[nH]c3ccc(NC(=O)c4sccc4Br)nc23)CC1
37 | 186 to 187 | COc1cccc(-c2nc3n(n2)Cc2cc(OC)c(OC)cc2-3)c1
38 | 154 to 155 | Cc1nc2ccccc2c(NCCO)c1Br
39 | 72 to 73 | O=C(NCCCCC1N=C(c2ccccc2)OC1=O)OCc1ccccc1 (stereo unspecified)
40 | 150 | CC(C(=O)O)c1ccc(C(=O)c2ccc3ccccc3c2)cc1 (stereo unspecified)
41 | 210 to 213 | CCOC(=O)c1ccc2c(c1)S(=O)c1ccccc1-2 (stereo unspecified)
42 | 118 to 120 | COc1cc(Nc2c(C#N)cnc3cc(OCCCN4CCS(=O)(=O)CC4)c(OC)cc23)c(Cl)cc1Cl
43 | 211 to 213 | Nc1cc(=O)nc(Nc2ccccc2)n1-c1ccc(Br)cc1
44 | 122 to 125 | COc1ccc(N2CCN(c3c(C)c(C)c4c(c3C)C(O)(c3cccc(C)c3)C(C)(C)O4)CC2)cc1 (stereo unspecified)
45 | 118 to 120 | Cc1cc(C2(C(F)(F)F)C=NC(c3ccccc3)C2)ccc1NC(=O)c1cccc(I)c1C(=O)NC(C)C (stereo unspecified)
46 | 95 to 98 | N#CCOC(=O)c1ccc(C(c2ccccc2)c2ccccc2)cn1

Row | melting point [°C] | Structure (SMILES)
47 | 56 to 57 | CCCCCCCC1CCC(CC(C#N)c2ccc(Br)cc2)CC1 (stereo unspecified)
48 | 276 | O=C1CC=Nc2cc3c(cc21)OCO3
49 | 200 to 202 | CC1(C)Oc2cc(Br)sc2C(N2CCCCC2=O)C1O (stereo unspecified)
50 | 152 | CC(C)N(C(=O)C(Cc1ccc(C=O)cc1)NC(=O)OC(C)(C)C)C(C)C (stereo unspecified)
51 | 153 | CC(=O)NCCOc1ccc(-c2ccc(=O)n(Cc3ccc(Cl)cc3F)c2)cc1
52 | 75 to 76 | Cc1cc(Cl)ccc1N=Cc1ccc(Cl)cc1
53 | 210 | CCc1cc2c(cc1N)N1CCCN=C1S2
54 | 160 to 161 | O=c1c2ccccc2ccc2cc(Cl)ccc12
55 | 133 to 140 | O=C(O)C(=O)CC(=O)c1ccc(Cc2ccc(Cl)c(Cl)c2)cc1
56 | 115 to 118 | O=C(c1ccc(-c2cccc3ccccc23)cc1Cl)N1Cc2cccn2Cc2ccccc21
57 | 246 to 248 | CC(=O)Nc1ccc(-n2c(N)nc3ccccc32)cc1
58 | 170 to 172 | COC(CCCNC(=O)C=CC(=O)NCCCC(OC)OC)OC
59 | 144 to 146 | CC(O)(CCN)C1(F)C=CC(c2ccccc2)=CC1 (stereo unspecified)
60 | 299 to 302 | O=C1c2cccc([N+](=O)[O-])c2C(=O)c2cccc(O)c21
61 | 251 to 253 | COc1ccc(C=CC(=O)O)cc1-c1cc2c(cc1OCCN1CCCCC1)C(C)(C)CCC2(C)C
62 | 118 to 120 | COc1cccc(C(=O)Nc2ccc(N3CCN(Cc4cccc(C#N)c4)CC3)cc2)c1OCc1ccc(C(F)(F)F)cc1
63 | 147 to 149 | NC(=O)c1ccc(C(F)(F)F)c(N)c1
64 | 94 to 96 | CCOc1ccc(C(=O)c2ccc(OC)c(Cl)c2Cl)c(F)c1
65 | 103 to 104 | Cc1noc(CCCCCCCOc2ccc(C3=NCCO3)cc2)c1CCl
66 | 118 to 119 | Cc1oc(-c2ccccc2)nc1COc1ccc(COc2cccnc2CO)cc1
67 | 269 to 270 | CCn1cc(C(=O)O)c(=O)cc1-c1ccc2c(c1)OCO2

Row | Structure (SMILES) | melting point [°C]
68 | CCc1c(O)cc(O)c(C(=O)c2ccc(OC)cc2)c1CC(=O)N(CCO)CCN1CCOCC1 | 235 to 237
69 | O=S1(=O)N(CCCN2CC=C(c3ccccc3)CC2)c2cccc3c2N1CCC3 | 120
70 | CN1Cc2c(C#CC(C)(C)OC(=O)C(C)(C)C)ncn2-c2cccc(Cl)c2C1=O | 132 to 133
71 | CC1CC2=CC(=O)CCC2C2C(O)CC3(C)C(=O)CCC3C12 (stereo unspecified) | 200
